According to US20230338568A1, “NOVEL ISOMERIC COMPOUNDS COMPRISING A RING-OPENED THIOSUCCINIMIDE GROUP, AN OLIGOPEPTIDE FRAGMENT AND A CHIRAL MOIETY” (priority 2020, published 2023):

Experiments:
[1] = tested on: HER2 negative cell MDA-MB-468; experiment: Cytotoxicity of α-ADCs in HER2 negative cell MDA-MB-468 (CellTiter-Glo); format: cell-based; conditions: HER2 negative MDA-MB-468, 72 h
Procedure: (§1) Cell viability is tested using CellTiter-Glo® Luminescent Kit (Promega, Cat.# G7573) read by a Biotek Cytation3 Imaging reader.
(§2) Study design was shown as in Table 21 and Table 22. […] Cell vitality formula: Viability = (RLU (X) - RLU (Puro))/(RLU (Control) - RLU (Puro)) ^∗ 100%. A logistic model (4-parameter) will be used for data processing, IC50 calculation and curve fitting by Prism 6 software.

[2] = tested on: HER2 positive cell HCC1954; experiment: Cytotoxicity of α-ADCs in HER2 positive cell HCC1954 (CellTiter-Glo); format: cell-based, Human; conditions: HER2 positive HCC1954, 72 h
Procedure: as §1, §2

COc1cc2cc(c1Cl)N(C)C(=O)C[C@H](OC(=O)[C@H](C)N(C)C(=O)CCS)[C@]1(C)O[C@H]1[C@H](C)[C@@H]1C[C@@](O)(NC(=O)O1)[C@H](OC)/C=C/C=C(\C)C2 [DM1]
IC50 [1]: 1.5 nM | IC50 [2]: 4.2 nM
